# According to patent US20090131513A1, “ANTI-INFLAMMATORY MODALITIES” (Novogen Research Pty Ltd., priority 2005, published 2009):
# Assays:
# [1] = Anti inflammatory activity (test not specified)
# [2] = target: T1, TX synthase (TXS) (Homo sapiens, UniProt P24557); assay: TXB2 synthesis following addition of exogenous PGH2 to U937 cells; type: cell-based; conditions: 1, 10, 100 μM, undifferentiated U937 cells, PGH2 5 μM
# T1 construct: endogenous in cells; host or cells: undifferentiated U937 cells
# T1 sequence (P24557 1-533): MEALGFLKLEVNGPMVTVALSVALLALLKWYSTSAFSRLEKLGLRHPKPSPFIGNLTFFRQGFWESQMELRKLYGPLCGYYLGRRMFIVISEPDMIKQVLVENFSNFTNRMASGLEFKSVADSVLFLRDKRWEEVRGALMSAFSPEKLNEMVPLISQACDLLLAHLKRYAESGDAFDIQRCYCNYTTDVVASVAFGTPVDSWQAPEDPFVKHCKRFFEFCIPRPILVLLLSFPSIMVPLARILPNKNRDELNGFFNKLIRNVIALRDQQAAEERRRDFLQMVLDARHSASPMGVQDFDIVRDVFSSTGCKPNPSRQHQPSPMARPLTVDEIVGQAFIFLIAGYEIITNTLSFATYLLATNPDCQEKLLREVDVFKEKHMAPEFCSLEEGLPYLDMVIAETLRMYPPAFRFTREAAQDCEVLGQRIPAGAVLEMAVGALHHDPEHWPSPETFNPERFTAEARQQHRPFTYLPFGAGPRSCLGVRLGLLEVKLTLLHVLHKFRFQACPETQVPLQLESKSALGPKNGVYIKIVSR
# Description: To examine effects of test compounds directly on TX synthase (TXS), a different assay system was used. Whereas arachidonic acid (AA) is the substrate for COX, PGH2 is the substrate for TX synthase. To examine directly the effect of these compounds on TXS, exogenous ? elow:
# Test compounds at 0 μM, 1 μM, 10 μM and 100 μM (in DMSO) were incubated with undifferentiated U937 cells (6×10^6/ml) for 30 min at 37° C., after which PGH2 (5 μM) was added. After incubation for 10 min, the reaction was terminated by centrifugation and the supernatants were collected and TXB2 production was measured in triplicate by RIA. ANOVA followed by Newman-Keuls multiple comparisons test was used to examine differences between doses and the control values. A statistical significance level of 0.05 was used and differences from control values are indicated by an asterisk (*).
# [3] = tested on: NFκB promoter activity; assay: Inhibition of NFκB promoter activity (β-lactamase reporter) in TNFα-stimulated THP-1 cells; type: cell-based, human; conditions: 5 h
# Description: Human macrophage THP-1 cells, modified to include the β-lactamase reporter gene, were seeded into wells of a 96-well plate (50×10^3 cells/well) in the presence of RPMI 1640 medium (70 μl). TNFα (7.5 ng/ml) and human sera (final concentration of 20%) were added to each well. Plates were incubated for 5 h at 37° C. to allow for NFkB-stimulated β-lactamase production. LiveBLAzer™ FRET B/G Substrate (CCF4-AM) was then added to assay for β-lactamase activity. Once CCFA-AM enters a cell, it is converted to negatively charged CCF4 by endogenous esterases. Excitation of this substrate at 409 nm leads to efficient FRET between the coumarin and fluorescein moieties, resulting in a green fluorescence detectable at 530 nm. The presence of β-lactamase leads to cleavage of CCF4 and results in a loss of FRET, resulting in a robust blue fluorescent signal detectable at 460 nm. Thus, activity of beta-lactamase (a marker of NFkB-promoter activity) is measured as a product to substrate ratio (blue/green fluorescence ratio: 460 nm/530 nm).
# [4] = tested on: contractile response of the aortic ring to noradrenaline; assay: Vasodilatory activity in the rat aortic ring assay; design: species or system rat (Sprague-Dawley); conditions: test compound 1 μg/ml
# Description: The vasodilatory capacity of test compounds was examined ex vivo using the rat aortic ring assay.
# Male Sprague-Dawley rats (250±50 g) were euthanized with 80% CO2 and 20% O2. The thoracic aorta was excised and quickly mounted in organ-baths as described (Chin-Dusting et al. 2001). Full concentration-contractile curves were obtained to noradrenaline ([…]) with and without test compounds delivered at a concentration of 1 μg/ml. Experiments were repeated in n=5 different rings from 5 different animals. Only one compound at any one concentration was tested on any one ring from any one animal. Sigmoidal dose response curves were fitted for the data and the logEC50 calculated (Prism 4, GraphPad Software). The difference in these values between the presence and absence of test compound was calculated using a two-tailed paired t test. The effects of β-oestrodiol and vehicle alone were examined as a positive and negative control respectively.
# [5] = tested on: female BALB/c mice; assay: Absence of gastrointestinal toxicity, gavage for 10 days; type: in vivo; conditions: 20 mg/kg daily by gavage for 10 days
# Description: Compound 2 at 5 mg/kg (n=3) or vehicle (PEG 400:PBS1:1; n=2) was administered via gavage to female BALB/c mice for 10 days. […] Histology of cecum and colon were normal.
# The diastereoisomeric mixture of Compounds 3a and 3b in PEG 400:PBS1:1 was administered to 7 week old female BALB/c mice (n=8) by gavage at 20 mg/kg daily for 10 days. There was no vehicle control group for comparison.
# Compound 4 at 5 mg/kg (n=3) or vehicle (n=2, PEG:PBS 1:1) was administered via gavage to female BALB/c mice for 10 days. […] Histology of cecum and colon were normal.
Structure (SMILES),anti inflammatory activity [1],"thromboxane synthase inhibition (TXB2 synthesis after exogenous PGH2), selectivity in words [2]",inhibition of NFκB compared to vehicle control [3],contractile response (logEC50) of the aortic ring to noradrenaline compared with vehicle [4],"mean increase in body weight over the 10 days, of the starting weight [5] [%]","body weight, in words ([5]; no vehicle group)"
"Oc1ccc(C23COc4cc(O)ccc4C2O3)cc1 (stereo not drawn) [3,4-epoxy-4′,7-dihydroxyisoflavan]",shows anti inflammatory activity,–,–,–,–,–
Cc1c(O)ccc2c1OCC(c1ccc(O)cc1)C2O (stereo not drawn) [Compound 3],–,less specific,significantly (p<0.001) inhibited,significantly inhibited,5,all mice maintained body weight
